In patent US9963433B2, “Anticancer drugs including the chemical structures of an androgen receptor ligand and a histone deacetylase inhibitor” (Wayne State University, priority 2016, dated 2018):

What was measured:
[1] = tested on: HDACs from Hela cell nuclear extract; type: biochemical; details: for IC50: cell-free, FIG. 2A, read-out: IC50, inhibition of HDACs enriched in the Hela nuclear extract
Procedure: (§1) FIGS. 2A-2F show measurement of intrinsic and in situ HDACi activities. […] IC50 values were calculated from nonlinear regression plots using GraphPad Prism5 software. […] Recombinant HDAC6 was incubated with each drug at the indicated concentrations. IC50 values were calculated from nonlinear regression plots using GraphPad Prism5 software.
(§2) HDAC activity assay. In vitro HDAC inhibition was measured by using the HDAC fluorimetric assay/drug discovery Kit (Enzo Life Sciences, BML-AK500) and the HDAC6 fluorometric drug discovery kit (Enzo Life Sciences, BML-AK516) following the manufacturer's protocols and instructions. IC50 values were calculated from nonlinear […] plots using GraphPad Prism5 software.
(§3) HDAC1 and HDAC2 are enriched in nuclear extracts whereas HDAC6 is a cytosolic enzyme that is the principal modulator of the acetylation status of Hsp90. […] Again, TSA served as the positive control in FIG. 2D.

human recombinant HDAC6 = molecular target: T1, human recombinant HDAC6 (Homo sapiens, UniProt Q9UBN7); experiment: HDAC6 fluorometric assay, recombinant enzyme; type: biochemical; details: for IC50: cell-free, FIG. 2C, read-out: IC50, inhibition of recombinant HDAC6
T1 construct: purchased Enzo Life Sciences BML-AK516
T1 sequence (Q9UBN7 1-1215): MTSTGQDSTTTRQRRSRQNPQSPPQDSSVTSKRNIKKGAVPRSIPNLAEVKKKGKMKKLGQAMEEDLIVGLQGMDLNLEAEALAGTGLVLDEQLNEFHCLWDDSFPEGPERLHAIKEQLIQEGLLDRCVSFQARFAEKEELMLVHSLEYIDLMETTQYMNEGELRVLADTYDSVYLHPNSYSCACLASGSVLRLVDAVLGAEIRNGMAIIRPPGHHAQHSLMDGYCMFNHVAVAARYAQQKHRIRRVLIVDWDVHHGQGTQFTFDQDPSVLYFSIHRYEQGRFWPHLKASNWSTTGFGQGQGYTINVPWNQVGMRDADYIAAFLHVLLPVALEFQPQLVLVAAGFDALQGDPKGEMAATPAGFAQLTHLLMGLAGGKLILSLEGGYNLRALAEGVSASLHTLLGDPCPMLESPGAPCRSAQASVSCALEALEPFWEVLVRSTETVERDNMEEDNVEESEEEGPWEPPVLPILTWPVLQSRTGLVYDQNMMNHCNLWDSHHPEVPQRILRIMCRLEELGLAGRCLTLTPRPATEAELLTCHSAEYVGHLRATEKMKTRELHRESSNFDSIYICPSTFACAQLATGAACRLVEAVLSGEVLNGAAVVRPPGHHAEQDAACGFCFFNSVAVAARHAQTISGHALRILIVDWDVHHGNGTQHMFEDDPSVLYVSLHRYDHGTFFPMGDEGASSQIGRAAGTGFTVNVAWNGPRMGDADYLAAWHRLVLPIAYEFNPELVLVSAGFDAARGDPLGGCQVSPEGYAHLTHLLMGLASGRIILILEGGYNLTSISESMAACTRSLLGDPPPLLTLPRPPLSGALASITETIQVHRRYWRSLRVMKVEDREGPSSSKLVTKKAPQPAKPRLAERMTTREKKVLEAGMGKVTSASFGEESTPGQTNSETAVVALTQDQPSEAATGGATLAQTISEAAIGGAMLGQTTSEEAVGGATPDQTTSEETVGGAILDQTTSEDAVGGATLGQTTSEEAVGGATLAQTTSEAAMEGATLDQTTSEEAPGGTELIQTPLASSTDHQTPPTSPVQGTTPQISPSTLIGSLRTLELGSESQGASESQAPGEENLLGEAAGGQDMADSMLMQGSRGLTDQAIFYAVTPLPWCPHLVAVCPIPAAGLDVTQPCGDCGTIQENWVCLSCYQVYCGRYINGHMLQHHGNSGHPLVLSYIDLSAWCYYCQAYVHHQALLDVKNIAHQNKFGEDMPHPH
Procedure: as §1, §2, §3

[2] = tested on: KLK3 mRNA (AR target gene) in C4-2 cells; experiment: Inhibition of R1881 activation of KLK3 mRNA in C4-2 cells; type: cell-based; details: hormone depleted 96 h, R1881 1 nM, compound 1-10 μM, 48 h, FIG. 3A
Procedure: (§4) Cell Culture and Reagents. LNCaP and 22Rv1 cell lines were from American Type Culture Collection (Manassas, Va.). C4-2 cells were kindly provided by Dr. Edwin Sanchez (University of Toledo). […] R1881 was kindly provided by Dr. Stephan Patrick (Karmanos Cancer Institute). All experiments were conducted using phenol-red free growth media.
(§5) RNA isolation, Reverse Transcription, and Real Time PCR. Total RNA was isolated from cells using the RNeasy Mini Kit (Qiagen). Reverse transcription PCR was then performed using 500 ng of total RNA with random primers and using the high-capacity complementary DNA Archive kit (Applied Biosystems). The complementary DNA from this reaction was measured using quantitative real time PCR using the StepONE Plus Real Time PCR system (Life Technologies Corporation, Carlsbad, Calif.). All reactions were performed in triplicate and normalized to glyceraldehyde-3-phosphate-dehydrogenase values in the same samples.

[3] = tested on: TMPRSS2 mRNA (AR target gene) in C4-2 cells; experiment: Inhibition of R1881 activation of TMPRSS2 mRNA in C4-2 cells; type: cell-based; details: hormone depleted 96 h, R1881 1 nM, compound 1-10 μM, 48 h, FIG. 3B
Procedure: as §4, §5

p21 mRNA in LNCaP cells = experiment: p21 mRNA induction in LNCaP cells; details: 10 μM, 48 h, FIG. 5A
[4] = tested on: 55 KDa polypeptide (putative Hsp90 fragment); experiment: Western blot of acetylated lysine in C4-2 cells; details: 24 h, acetylated lysine antibody, FIG. 4C
Procedure: Cells were then harvested for western blot analysis using antibody to AR (4A), HSP90 (4B), Acetyl-Lysine (4C) or GAPDH (loading control). ImageJ software was used to determine the intensities of the bands relative to the vehicle control for each protein. The values were then divided by the values for GAPDH within the same samples.
Western Blot Analysis. Cells were washed once with phosphate buffered saline (PBS) and then lysed with RIPA buffer (150 mM NaCl, 1% Nonidet P-40, 0.5% sodium deoxycholate, 0.1% SDS, 50 mM Tris of pH 8.0) containing a protease inhibitor cocktail (Pierce, Thermo Fisher Scientific). The cell lysates were then incubated on ice for 40 minutes. Total protein concentrations were estimated using the Bradford Assay (Bio-Rad). Protein samples (10-40 ug) were heated at 95° C. for 5 minutes and resolved by electrophoresis on 8% polyacrylamide-SDS gels and electrophoretically transferred to PVDF membranes (Millipore, Billerica, Mass.). The membranes were then probed overnight at 4° C. with the appropriate primary antibody followed by the appropriate horseradish peroxidase-conjugated secondary antibody.

| SMILES | IC50 [1] | IC50 (human recombinant HDAC6) | inhibition of activation of KLK3 by R1881 [2] | inhibition of activation of TMPRSS2 by R1881 [3] | p21 mRNA expression (p21 mRNA in LNCaP cells) | hyper-acetylation of a 55 KDa polypeptide [4] | inhibition of nuclear HDAC activity ([1]; HeLa cell nuclear extract, tested at 10 μM and 25 μM, FIG. 2B) | inhibitory activity against HDAC6 (human recombinant HDAC6; tested at 10 μM and 25 μM, FIG. 2D) |
| --- | --- | --- | --- | --- | --- | --- | --- | --- |
| CC1(C)C(=O)N(c2ccc(C#N)c(C(F)(F)F)c2)C(=S)N1c1ccc(C(=O)NCCCCCCC(=O)NO)c(F)c1 [Compound 2-75, 4-(3-(4-cyano-3-(trifluoromethyl)phenyl)-5,5-dimethyl-4-oxo-2-thioxoimidazolidin-1-yl)-2-fluoro-N-(7-(hydroxyamino)-7-oxoheptyl)benzamide] | 1080 nM | 2000 nM | better inhibitors of gene activation by androgen compared with either Enz or SAHA | better inhibitors of gene activation by androgen compared with either Enz or SAHA | induced p21 to a greater extent than SAHA | hyper-acetylation of a 55 KDa polypeptide |  |  |
| CC1(C)C(=O)N(c2ccc(C#N)c(C(F)(F)F)c2)C(=S)N1c1ccc(/C=C/C(=O)NO)c(F)c1 [Compound 1005, (E)-3-(4-(3-(4-cyano-3-(trifluoromethyl)phenyl)-5,5-dimethyl-4-oxo-2-thioxoimidazolidin-1-yl)-2-fluorophenyl)-N-hydroxyacrylamide] | 2410 nM | 6930 nM | better inhibitors of gene activation by androgen compared with either Enz or SAHA | better inhibitors of gene activation by androgen compared with either Enz or SAHA | induced p21 to a greater extent than SAHA | hyper-acetylation of a 55 KDa polypeptide |  |  |
| CNC(=O)c1ccc(N2C(=S)N(c3ccc(C#N)c(C(F)(F)F)c3)C(=O)C2(C)C)cc1F [Enz, Enzalutamide, reference compound] |  |  | progressive inhibition at higher doses | progressive inhibition at higher doses | had no effect | not | lacked any HDACi activity | did not show significant inhibitory activity |
